Tests used:
NCI-H1299 cells = experiment: Induction of polyploidy in H1299; assay type: cell-based, Human; details: Homo sapiens; NCI-H1299, 48 hours; read-out: EC15 (concentration of inhibitor necessary to induce polyploidy in 15% of cells)
How it was run: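 NCI-H1299 cells in RPMI 1640/10% FCS were treated with inhibitor concentrations in duplicate for 48 h at 37 C, then formalin-fixed and Hoechst-stained. Nuclear area was measured by high-content imaging, with polyploid (≥4N) defined as >750 μ^2. EC15 was derived by least-squares fit of log dose-response.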

Aurora A = molecular target: T1, Aurora A (Homo sapiens, UniProt O14965); experiment: Aurora A enzyme inhibition (time-resolved fluorescence, STK substrate-2); assay type: biochemical; details: 1 mM ATP
T1 sequence (O14965 1-403): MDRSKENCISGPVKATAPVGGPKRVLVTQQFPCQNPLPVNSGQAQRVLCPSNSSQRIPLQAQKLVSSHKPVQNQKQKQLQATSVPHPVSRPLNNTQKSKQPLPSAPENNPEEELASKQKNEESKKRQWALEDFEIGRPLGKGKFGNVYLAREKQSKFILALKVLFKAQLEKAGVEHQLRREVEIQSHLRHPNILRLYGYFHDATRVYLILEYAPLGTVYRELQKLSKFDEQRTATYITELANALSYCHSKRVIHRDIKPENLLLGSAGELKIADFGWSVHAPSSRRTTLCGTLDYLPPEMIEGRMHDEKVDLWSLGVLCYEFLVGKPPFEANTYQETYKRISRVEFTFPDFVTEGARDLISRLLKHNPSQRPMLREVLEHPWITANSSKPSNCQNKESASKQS
How it was run: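 Active enzyme incubated 1 h with biotinylated STK substrate-2, 1 mM ATP and inhibitor in Hepes pH 7.4 with MgCl2, orthovanadate and Triton X-100. EDTA stop; phosphopeptide detected by Eu-cryptate anti-phospho-STK/SA-XL665 TR-FRET (665/615 nm ratio); IC50 by exponential fit.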

SMILES	Ki (Aurora A) [nM]	EC15 (NCI-H1299 cells) [nM]
NC(=O)[C@@H]1[C@H](Nc2nc(Nc3cnn(Cc4ccccc4)c3)ncc2Cl)[C@H]2C=C[C@@H]1C2 [Example 144, (1S,2S,3R,4R)-3-({2-[(1-benzyl-1H-pyrazol-4-yl)amino]-5-chloropyrimidin-4-yl}amino)bicyclo[2.2.1]hept-5-ene-2-carboxamide]	< 100	< 100
NC(=O)[C@@H]1[C@H](Nc2nc(Nc3cnn(CCc4ccccc4)c3)ncc2Br)[C@H]2C=C[C@@H]1C2 [Example 148, (1S,2S,3R,4R)-3-[(5-bromo-2-{[1-(2-phenylethyl)-1H-pyrazol-4-yl]amino}pyrimidin-4-yl)amino]bicyclo[2.2.1]hept-5-ene-2-carboxamide]	< 100	< 100
Cn1cc(Nc2ncc(C(F)(F)F)c(Nc3ccsc3C(N)=O)n2)cn1 [Example 150, 3-({2-[(1-methyl-1H-pyrazol-4-yl)amino]-5-(trifluoromethyl)pyrimidin-4-yl}amino)thiophene-2-carboxamide]	< 100	< 100
NC(=O)[C@@H]1[C@H](Nc2nc(Nc3cnn(Cc4cccc(Cl)c4)c3)ncc2Cl)[C@H]2C=C[C@@H]1C2 [Example 157, (1S,2S,3R,4R)-3-[(5-chloro-2-{[1-(3-chlorobenzyl)-1H-pyrazol-4-yl]amino}pyrimidin-4-yl)amino]bicyclo[2.2.1]hept-5-ene-2-carboxamide]	< 100	< 100
NC(=O)[C@@H]1[C@H](Nc2nc(Nc3cnn(CCc4cccc(Cl)c4)c3)ncc2Cl)[C@H]2C=C[C@@H]1C2 [Example 158, (1S,2S,3R,4R)-3-{[5-chloro-2-({1-[2-(3-chlorophenyl)ethyl]-1H-pyrazol-4-yl}amino)pyrimidin-4-yl]amino}bicyclo[2.2.1]hept-5-ene-2-carboxamide]	< 100	< 100
NC(=O)[C@@H]1[C@H](Nc2nc(Nc3cnn(Cc4ccccc4Cl)c3)ncc2Cl)[C@H]2C=C[C@@H]1C2 [Example 161, (1S,2S,3R,4R)-3-[(5-chloro-2-{[1-(2-chlorobenzyl)-1H-pyrazol-4-yl]amino}pyrimidin-4-yl)amino]bicyclo[2.2.1]hept-5-ene-2-carboxamide]	< 100	< 100
NC(=O)[C@@H]1[C@H](Nc2nc(Nc3cnn(Cc4ccc(Cl)cc4)c3)ncc2Cl)[C@H]2C=C[C@@H]1C2 [Example 162, (1S,2S,3R,4R)-3-[(5-chloro-2-{[1-(4-chlorobenzyl)-1H-pyrazol-4-yl]amino}pyrimidin-4-yl)amino]bicyclo[2.2.1]hept-5-ene-2-carboxamide]	< 100	< 100
Cn1cc(Nc2ncc(Cl)c(N[C@H]3[C@@H](C(N)=O)C[C@H]4C[C@@H]3C4(C)C)n2)cn1 [Example 165, (1R,2R,3S,5R)-2-({5-chloro-2-[(1-methyl-1H-pyrazol-4-yl)amino]pyrimidin-4-yl}amino)-6,6-dimethylbicyclo[3.1.1]heptane-3-carboxamide]	< 100	< 100
Cn1cc(Nc2ncc(C(F)(F)F)c(N[C@H]3[C@@H](C(N)=O)C[C@H]4C[C@@H]3C4(C)C)n2)cn1 [Example 167, (1R,2R,3S,5R)-6,6-dimethyl-2-({2-[(1-methyl-1H-pyrazol-4-yl)amino]-5-(trifluoromethyl)pyrimidin-4-yl}amino)bicyclo[3.1.1]heptane-3-carboxamide]	< 100	< 100
CCn1cc(Nc2ncc(C(F)(F)F)c(N[C@H]3[C@@H](C(N)=O)C[C@H]4C[C@@H]3C4(C)C)n2)cn1 [Example 168, (1R,2R,3S,5R)-2-({2-[(1-ethyl-1H-pyrazol-4-yl)amino]-5-(trifluoromethyl)pyrimidin-4-yl}amino)-6,6-dimethylbicyclo[3.1.1]heptane-3-carboxamide]	< 100	< 100
Cc1c(Nc2ncc(Cl)c(N[C@H]3[C@@H](C(N)=O)[C@@H]4C=C[C@H]3C4)n2)cnn1C [Example 169, (1S,2S,3R,4R)-3-({5-chloro-2-[(1,5-dimethyl-1H-pyrazol-4-yl)amino]pyrimidin-4-yl}amino)bicyclo[2.2.1]hept-5-ene-2-carboxamide]	< 100	< 100
Cc1c(Nc2ncc(Br)c(N[C@H]3[C@@H](C(N)=O)[C@@H]4C=C[C@H]3C4)n2)cnn1C [Example 170, (1S,2S,3R,4R)-3-({5-bromo-2-[(1,5-dimethyl-1H-pyrazol-4-yl)amino]pyrimidin-4-yl}amino)bicyclo[2.2.1]hept-5-ene-2-carboxamide]	< 100	< 100
NC(=O)[C@@H]1[C@H](Nc2nc(Nc3cnn(-c4ccccc4)c3)ncc2Br)[C@H]2C=C[C@@H]1C2 [Example 173, (1S,2S,3R,4R)-3-({5-bromo-2-[(1-phenyl-1H-pyrazol-4-yl)amino]pyrimidin-4-yl}amino)bicyclo[2.2.1]hept-5-ene-2-carboxamide]	< 100	< 100
NC(=O)[C@@H]1[C@H](Nc2nc(Nc3cnn(-c4ccccc4)c3)ncc2Cl)[C@H]2C=C[C@@H]1C2 [Example 174, (1S,2S,3R,4R)-3-({5-chloro-2-[(1-phenyl-1H-pyrazol-4-yl)amino]pyrimidin-4-yl}amino)bicyclo[2.2.1]hept-5-ene-2-carboxamide]	< 100	< 100
NC(=O)[C@@H]1[C@H](Nc2nc(Nc3cnn(Cc4ccc5ccccc5c4)c3)ncc2Cl)[C@H]2C=C[C@@H]1C2 [Example 179, (1S,2S,3R,4R)-3-[(5-chloro-2-{[1-(2-naphthylmethyl)-1H-pyrazol-4-yl]amino}pyrimidin-4-yl)amino]bicyclo[2.2.1]hept-5-ene-2-carboxamide]	< 100	< 100
COc1ccc(Cn2cc(Nc3ncc(Cl)c(N[C@H]4[C@@H](C(N)=O)[C@@H]5C=C[C@H]4C5)n3)cn2)cc1F [Example 192, (1S,2S,3R,4R)-3-[(5-chloro-2-{[1-(3-fluoro-4-methoxybenzyl)-1H-pyrazol-4-yl]amino}pyrimidin-4-yl)amino]bicyclo[2.2.1]hept-5-ene-2-carboxamide]	< 100	< 100

More lines, main results first:

Ki (Aurora A) [nM]	SMILES	EC15 (NCI-H1299 cells) [nM]
< 100	NC(=O)[C@@H]1[C@H](Nc2nc(Nc3cnn(Cc4ccccc4)c3)ncc2Br)[C@H]2C=C[C@@H]1C2 [Example 149, (1S,2S,3R,4R)-3-({2-[(1-benzyl-1H-pyrazol-4-yl)amino]-5-bromopyrimidin-4-yl}amino)bicyclo[2.2.1]hept-5-ene-2-carboxamide]	< 100
< 100	COc1cccc(CCn2cc(Nc3ncc(Cl)c(N[C@H]4[C@@H](C(N)=O)[C@@H]5C=C[C@H]4C5)n3)cn2)c1 [Example 154, (1S,2S,3R,4R)-3-{[5-chloro-2-({1-[2-(3-methoxyphenyl)ethyl]-1H-pyrazol-4-yl}amino)pyrimidin-4-yl]amino}bicyclo[2.2.1]hept-5-ene-2-carboxamide]	< 100
< 100	COc1cccc(Cn2cc(Nc3ncc(Cl)c(N[C@H]4[C@@H](C(N)=O)[C@@H]5C=C[C@H]4C5)n3)cn2)c1 [Example 155, (1S,2S,3R,4R)-3-[(5-chloro-2-{[1-(3-methoxybenzyl)-1H-pyrazol-4-yl]amino}pyrimidin-4-yl)amino]bicyclo[2.2.1]hept-5-ene-2-carboxamide]	< 100
< 100	COc1cccc(Cn2cc(Nc3ncc(Br)c(N[C@H]4[C@@H](C(N)=O)[C@@H]5C=C[C@H]4C5)n3)cn2)c1 [Example 159, (1S,2S,3R,4R)-3-[(5-bromo-2-{[1-(3-methoxybenzyl)-1H-pyrazol-4-yl]amino}pyrimidin-4-yl)amino]bicyclo[2.2.1]hept-5-ene-2-carboxamide]	< 100
< 100	COc1cccc(CCn2cc(Nc3ncc(Br)c(N[C@H]4[C@@H](C(N)=O)[C@@H]5C=C[C@H]4C5)n3)cn2)c1 [Example 160, (1S,2S,3R,4R)-3-{[5-bromo-2-({1-[2-(3-methoxyphenyl)ethyl]-1H-pyrazol-4-yl}amino)pyrimidin-4-yl]amino}bicyclo[2.2.1]hept-5-ene-2-carboxamide]	< 100
< 100	NC(=O)[C@@H]1[C@H](Nc2nc(Nc3cnn(Cc4ccccc4Cl)c3)ncc2Br)[C@H]2C=C[C@@H]1C2 [Example 171, (1S,2S,3R,4R)-3-[(5-bromo-2-{[1-(2-chlorobenzyl)-1H-pyrazol-4-yl]amino}pyrimidin-4-yl)amino]bicyclo[2.2.1]hept-5-ene-2-carboxamide]	< 100
< 100	NC(=O)[C@@H]1[C@H](Nc2nc(Nc3cnn(Cc4ccc(Cl)cc4)c3)ncc2Br)[C@H]2C=C[C@@H]1C2 [Example 172, (1S,2S,3R,4R)-3-[(5-bromo-2-{[1-(4-chlorobenzyl)-1H-pyrazol-4-yl]amino}pyrimidin-4-yl)amino]bicyclo[2.2.1]hept-5-ene-2-carboxamide]	< 100
< 100	Cc1cccc(Cn2cc(Nc3ncc(Cl)c(N[C@H]4[C@@H](C(N)=O)[C@@H]5C=C[C@H]4C5)n3)cn2)c1 [Example 178, (1S,2S,3R,4R)-3-[(5-chloro-2-{[1-(3-methylbenzyl)-1H-pyrazol-4-yl]amino}pyrimidin-4-yl)amino]bicyclo[2.2.1]hept-5-ene-2-carboxamide]	< 100
